The text below walks through data of patent US6974867B2, “Compositions and methods for treating neoplastic disease using chemotherapy and radiation sensitizers” (Chiron Corporation, priority 2000, dated 2005).

One data set relates to KIAA0175. The data set can be described thus: KIAA0175 protein levels after exposure of cells to hydroxyurea (Western). To be noted: recombinant HA-fusion protein or endogenously expressed.
Another data set deals with KIAA0175 mRNA. The data set can be described thus: Northern analysis of KIAA0175 mRNA after anti-sense oligonucleotide transfection. Type of data set: cell-based, human. To be noted: HT1080 cells; for level of KIAA0175 mRNA expression: 100 nM oligonucleotide, Northern analysis; for KIAA0175 mRNA expression over time: 24 to 72 hours after oligonucleotide administration. As to the method: HT 1080 cells express endogenous KIAA0175. These cells were transfected with either the FITC (negative control) or AKT1 (positive control) oligonucleotides), 1182, or 545 oligonucleotides. Briefly, 100 nM of the respective anti-sense oligonucleotide was mixed with lipitoid 1 transfection reagent (Huang et al., Chemistry and Biology 5(6):346-354 (1998)) in a 1:3 volume to volume ratio in OPTI-MEM (GibcoBRL). The mixture was added to the HT1080 cells in complete medium (EMEM, 10% heat inactivated fetal bovine serum (FBS), 2 mM L-Glutamine, 100 U/ml Penicillin, and […] Streptomycin) and the cells were incubated at 37° C. for ^˜4-5 hours in the presence of the anti-sense oligonucleotides before changing to fresh complete medium. Total RNA was extracted at day 1 or 24, 48, or 72 hours following transfection and mRNA levels of KIAA0175 were detected by Northern analysis. 20 μg of total RNA were subjected to electrophoresis on a denaturing agarose gel. RNA was transferred to nitrocellulose and KIAA0175 mRNA was detected by probing with a ^32P-labeled, 0.7 kb KIAA0175 cDNA fragment. To control for equal loading of individual lanes, the blot was stripped of the KIAA0175 probe and re-probed with a ^32P-labeled G3PDH cDNA probe obtained from Clontech.

Data set [1] has as its system Breast Cancer Cell Line MDA-MB-231. Put plainly: LDH cytotoxicity assay, breast cancer cell line. Type of data set: cell-based. How it is done: (§1) The effect of KIAA0175 anti-sense molecules on cell sensitivity to chemotherapeutic drugs was tested on several cell lines using the lactate dehydrogenase (LDH) cytotoxicity assay essentially as follows:
(§2) Day 1: Cells were seeded in 4 separate 96 well plates, typically 5000 cells/well and incubated at 37° C. and 5% CO2.
(§3) Day 2: Cells were transfected with the KIA175-1182 and KIA175-545 anti-sense oligonucleotides (SEQ ID NOs:5 and 1, respectively) as well as the reverse complement controls, RC1182 and RC545 (SEQ ID NOs:6 and 2, respectively) essentially as described in Example 4, with and without drug. One plate (day 0) was left untransfected as a seeding control.
(§4) The transfection was carried out using a lipid vehicle for delivery as described in WO 01/16306, hereby incorporated in its entirety. Briefly, the transfection used agents known as “lipitoids” and “cholesteroids”, described, for example, in PCT publications WO 01/16306, WO 98/06437 and WO 99/08711, based on U.S. Ser. No. 60/023,867, 60/054,743, and 09/132,808, which are also hereby incorporated by reference. These lipid-cationic peptoid conjugates are shown in these references to be effective reagents for the delivery of plasmid DNA to cells in vitro. Any of the carriers described in the above-referenced applications are suitable for use in transfection of the oligonucleotides described herein.
(§5) Depending on the cell type, different lipid vehicles were used for different lengths of time for transfection. […] The transfection was carried out in complete medium and the final anti-sense oligonucleotide concentration was 300 nM per well. In the wells with drug, the drug was added to the culture at the beginning of the transfection.
(§6) Starting on Day 3: Cells were recovered, 1 plate/day and release of LDH into the supernatant was measured using a kit from Roche according to manufacturer's instructions (Roche Diagnostics, Basel, Switzerland) (data labeled as day 1, 2, 3).
(§7) For each sample, the data are expressed as a ratio of the level of LDH in wells containing cells transfected with anti-sense (AS) over the level of LDH in wells containing cells transfected with the reverse complement controls (RC) (ie:AS/RC). Thus, cells that become sensitized to drug will die and release LDH into the supernatant. An increase in the ratio signifies increased cell death and thus, higher levels of LDH in the media. A ratio higher than 1.5 signifies an effect of the anti-sense over the reverse complement control.

The subject of another data set is HCT116 cells. Put plainly: Colony (Crystal Violet) viability assay, sensitization to γ-irradiation and hydroxyurea. The data set is classed as cell-based. To be noted: 11 days of culture, compared to RC-treated cells. How it is done: γ-irradiation treatment was performed as follows: On day one, HCT116 cells were transfected with either the KIAA0175 anti-sense molecule No. 545 (545) or with the 545 reverse control molecule (RC) and plated onto tissue-culture plates. On day three, one plate each of 545 and RC transfected cells were treated with γ-irradiation (2, 4 or 8 Gy) and cultured an additional 2 hours. The γ-irradiation treated cells as well as untreated control HCT116 cells were trypsinized, counted and seeded in triplicate onto 6-well tissue culture plates to a density of 1000 cells per well. After 11 days of culture, the cells were assayed for viability by staining with Crystal Violet. Total numbers of cell colonies were then counted.
Hydroxyurea treatment was performed as follows: On day one, HCT116 cells were transfected with either the KIAA0175 anti-sense molecule No. 545 (545) or with the 545 reverse control molecule (RC) and plated onto tissue-culture plates. The following day (day two), one plate each of 545 and RC transfected cells were treated with hydroxyurea (1 mM final concentration) and cultured an additional 24 hours. On day three, the hydroxyurea treated cells as well as untreated control HCT116 cells were trypsinized, counted and seeded in triplicate onto 6-well tissue culture plates to a density of 1000 cells per well. […] Total numbers of cell colonies were then counted.

In data set [2] the test system is Normal Breast Epithelial Cell Line 184B5. Put plainly: LDH cytotoxicity assay, normal breast epithelial cell line. The data set is classed as cell-based. How it is done:
as §1, §2, §3, §4, §5, §6, §7

For the next data set, the system named is p53. The data set can be described thus: Western analysis of p53 after γ-irradiation of transfected HT1080 cells. The data set is classed as cell-based, human. To be noted: 10 Gy γ-irradiation 24 hours after transfection. As to the method: HT1080 cells expressing endogenous KIAA0175 were transfected with the KIAA0175 anti-sense oligonucleotide (1182) and the corresponding reverse control oligonucleotide (RC1182). After culture for 24-hours, the transfected cells were treated with 10 Gy of γ-irradiation. At various times after irradiation, cells were harvested and lysates prepared and subjected to SDS-PAGE. p53, Erk2, and p21 proteins were detected by Western analysis.

In the next data set the test system is HT1080 cells. Put plainly: Cell cycle arrest upon γ-irradiation in transfected HT1080 cells. Type of data set: cell-based, human. As to the method: Because both p53 and p21 are involved in the G1 to S phase cell cycle transition, the following experiments were performed in order to assess the effect of KIAA0175 anti-sense molecules on cell cycle regulation.
Table 1 discloses the percentage of HT1080 cells in each stage of the cell cycle at various times following exposure to γ-irradiation. By 24 hours, cells were arrested in both the G1 and G2 phases as evidenced by the elevated percentage of cells in G0/G1 and G2/M phases as compared to the diminished percentage of cells in the S phase.
Table 2 discloses the effect of KIAA0175 anti-sense molecules on γ-irradiation induced cell-cycle arrest. In cells transfected with anti-sense molecules, there was a reduction in the accumulation of cells in the G1 phase and a minimized reduction in the number of cells in the S phase as compared to cells transfected with a “reverse-control” anti-sense molecule as control.

[3] abbreviates: MDA-MB-231 metastatic breast cancer cells.

Turning to `NC(=O)NO` [hydroxyurea], the KIAA0175 protein levels result in the data set on KIAA0175 is given as “caused an increase in KIAA0175 protein levels”.

“AKT: positive control oligonucleotide 5′-CCATAGTGAGGTTGCATCTGGTGCC-3′ (listed as DNA, chemistry not given here) [reference compound]”: the “level of KIAA0175 mRNA expression” value in the data set on KIAA0175 mRNA is on record as “ineffective in reducing KIAA0175 mRNA expression”.

For the compound “FITC: negative control oligonucleotide 5′-TCTGCTGCTGTCGACAACGAGTGTC-3′ (FITC label, position not given here) [reference compound]”, in the data set on KIAA0175 mRNA, the “level of KIAA0175 mRNA expression” value is reported as “ineffective in reducing KIAA0175 mRNA expression” and the “KIAA0175 mRNA expression over time” value is recorded as “no effect”.

Take “KIA175-545: KIAA0175 anti-sense oligonucleotide 5′-GAGGTCCCTGTGAGCATAGCCCTGG-3′ (listed as DNA, chemistry not given here)”: the “level of KIAA0175 mRNA expression” value in the data set with KIAA0175 mRNA was “effective in reducing the level of KIAA0175 mRNA expression”. For the same compound, the “KIAA0175 mRNA expression over time” value in the data set on KIAA0175 mRNA is “increased gradually”. Also, the “LDH ratio AS/RC” value is listed as 0.84 in data set [1] (MDA-MB-231, Day 0 (untransfected seeding control plate), 300 nM oligonucleotide); 1.05 in data set [1] (MDA-MB-231, Day 1, 300 nM oligonucleotide, ratio higher than 1.5 signifies an effect); 1.37 in data set [1] (MDA-MB-231, Day 2, 300 nM oligonucleotide, ratio higher than 1.5 signifies an effect); 1.62 in data set [1] (MDA-MB-231, Day 3, 300 nM oligonucleotide, ratio higher than 1.5 signifies an effect); 0.0000 in data set [2] (184B5, Day 0 (untransfected seeding control plate), 300 nM oligonucleotide); 1.1152 in data set [2] (184B5, Day 1, 300 nM oligonucleotide, ratio higher than 1.5 signifies an effect). For the same compound, the “LDH ratio AS/RC” value in data set [2] (184B5, Day 2, 300 nM oligonucleotide, ratio higher than 1.5 signifies an effect) is recorded as 1.1258; in data set [2] (184B5, Day 3, 300 nM oligonucleotide, ratio higher than 1.5 signifies an effect), 1.2934. The “sensitization to the effects of Campthesin (CPT)” value in data set [1] (setting [3]) was “sensitizes”. In addition, in data set [1] (setting [3]), the “sensitization to the effects of Cisplatin” value is listed as “sensitizes”. The “sensitization to the effects of Doxorubicin (Doxo)” value in data set [1] (setting [3]) is “did not appear to sensitize”. In addition, the “sensitivity to hydroxyurea (number of viable colonies)” value in the data set on HCT116 cells (hydroxyurea 1 mM 24 hours) is reported as “increased the sensitivity of HCT116 cells to hydroxyurea”. The “sensitivity to γ-irradiation (number of viable colonies)” value in the data set on HCT116 cells (γ-irradiation 2, 4 or 8 Gy) is listed as “increased the sensitivity of HCT116 cells to γ-irradiation”. For the same compound, the “effect on cell death (LDH)” value in data set [2] (184B5 normal breast epithelial cell line) is “neither KIA175-1182 nor KIA175-545 has an effect”.

“KIA175-736: KIAA0175 anti-sense oligonucleotide 5′-TGCCCATGCTCCAAACATCTGCCTC-3′ (listed as DNA, chemistry not given here)”: in the data set on KIAA0175 mRNA, the “level of KIAA0175 mRNA expression” value is “effective in reducing the level of KIAA0175 mRNA expression”.

For “RC736: reverse control oligonucleotide 5′-CTCCGTCTACAAACCTCGTACCCGT-3′ (listed as DNA, chemistry not given here) [reference compound]”, the “level of KIAA0175 mRNA expression” value in the data set with KIAA0175 mRNA is “ineffective in reducing KIAA0175 mRNA expression”.

In the case of “RC1182: reverse control oligonucleotide 5′-AGGACACCTGTTCGGTCACGATGGG-3′ (listed as DNA, chemistry not given here) [reference compound]”, the “level of KIAA0175 mRNA expression” value in the data set with KIAA0175 mRNA is “ineffective in reducing KIAA0175 mRNA expression”. In the data set with p53, the “γ-irradiation induced increase in p53 protein level” value is on record as “increase in p53 protein level observed”. Also, in the data set with HT1080 cells (+ γ-irradiation), the “percentage of cells in G0-G1” value amounted to 52.5%, the “percentage of cells in G2-M” value is reported as 32.6% and the “percentage of cells in S” value is given as 14.9%. Moreover, in the data set with HT1080 cells (− γ-irradiation), the “percentage of cells in G0-G1” value turned out to be 47.6%, the “percentage of cells in G2-M” value turned out to be 19.4% and the “percentage of cells in S” value is 33%.
